Measured values taken from the NIST ThermoML archive (doi:10.1021/je800751m).
± gives the expanded uncertainty stated by the source.

Assay: excess molar enthalpy (molar enthalpy of mixing); xn = mol fraction of the nth substance listed
Conditions: 298.15 K, 101 kPa, Liquid, Flow calorimetry

C1CCCCC1 [cyclohexane] + CCCCO
Conditions	excess molar enthalpy [kcal/mol]
x1 = 0.0503	0.0163 ± 0.000669
x1 = 0.0998	0.0346 ± 0.000717
x1 = 0.1502	0.052 ± 0.000789
x1 = 0.1998	0.0685 ± 0.000884
x1 = 0.2502	0.0836 ± 0.000956
x1 = 0.2997	0.0974 ± 0.00103
x1 = 0.35	0.1103 ± 0.0011
x1 = 0.4002	0.122 ± 0.00117
x1 = 0.4503	0.1321 ± 0.00124
x1 = 0.5003	0.1404 ± 0.00129
x1 = 0.5501	0.1466 ± 0.00134
x1 = 0.5997	0.1505 ± 0.00136
x1 = 0.6501	0.1517 ± 0.00136
x1 = 0.7002	0.1498 ± 0.00134
x1 = 0.7501	0.1445 ± 0.00131
x1 = 0.7996	0.1355 ± 0.00129
x1 = 0.85	0.123 ± 0.00124
x1 = 0.9	0.105 ± 0.00122
x1 = 0.9496	0.0799 ± 0.00115
